Assay results reported in patent US10087229B2, “Peptide compound” (TAKEDA PHARMACEUTICAL COMPANY LIMITED, priority 2013, dated 2018).
Square brackets hold non-standard residues; d marks the D form. Peptide text beside a SMILES is read from it. αMeF = C[C@](N)(Cc1ccccc1)C(=O)O; Cha = N[C@@H](CC1CCCCC1)C(=O)O; Aib = CC(C)(N)C(=O)O

tested on: male C57BL/6J mouse; assay: 2-days continuous subcutaneous administration test (feeding suppressive activity); type: in vivo; settings: 10 nmol/kg/day, subcutaneous Alzet pump, 2-days cumulative food consumption, control (solvent alone) = 0%
Description: 2-Days Continuous Subcutaneous Administration Test
The feeding suppressive activity of a test compound was examined by the method described below.
The test compound was dissolved in a solvent (50% DMSO) so that sustained release would occur at 10 nmol/kg/day, and the solution was filled in the Alzet Pump (DURECT Corporation, model: 1003D). The pump thus filled with the solution to be administered was immersed in physiological saline for priming, and then used. The pump was embedded by the following method. Each male C57BL/6J mouse at 8-9 weeks of age (20-26° C., allowed to take food and water ad libitum; 12-hour bright-12-hour dark cycle) was anesthetized; the skin in the upper back thereof was incised, and the above-mentioned pump was embedded subcutaneously; the incision was sutured. After weighing, this mouse was returned to the rearing cage (reared alone), and given previously weighed food; food consumption as of 2 days after the start of administration was measured. The food consumption was calculated by subtracting the amount of remaining food from the weight of the food given on the day of the start of administration. When the food consumption of a control group receiving administration of the solvent alone was regarded as a suppression rate of 0%, the feeding suppressive activity of each test compound was evaluated on the basis of 2-days cumulative food consumption after the start of administration. The food intake suppression rate (%) of the test compound was defined as (Food consumption of the control group−Food consumption of the test compound-administered group)/Food consumption of the control group×100.

| Compound | Food intake suppression (%) |
| --- | --- |
| CC(C)C[C@H](NC(=O)[C@H](CC(C)C)NC(=O)[C@H](Cc1c[nH]c2ccccc12)NC(=O)[C@H](CCCCN)NC(=O)[C@@H](NC(=O)[C@H](Cc1ccccc1)NC(=O)[C@H](CCC(=O)O)NC(=O)[C@H](C)NC(=O)[C@H](CCC(N)=O)NC(=O)[C@H](C)NC(=O)[C@H](CCC(N)=O)NC(=O)[C@H](CCCCN)NC(=O)[C@H](CC(=O)O)NC(=O)[C@H](CC(C)C)NC(=O)C(C)(C)NC(=O)[C@H](C)NC(=O)C(C)(C)NC(=O)[C@H](Cc1ccc(O)cc1)NC(=O)[C@H](CC(=O)O)NC(=O)[C@H](CO)NC(=O)[C@@H](NC(=O)[C@](C)(Cc1ccccc1)NC(=O)[C@@H](NC(=O)CNC(=O)[C@H](CCC(=O)O)NC(=O)C(C)(C)NC(=O)[C@@H](N)Cc1ccc(O)cc1)[C@@H](C)O)[C@@H](C)O)C(C)C)C(=O)N[C@@H](CCCCN)C(=O)NCC(=O)NCC(=O)N1CCC[C@H]1C(=O)N[C@@H](CO)C(=O)N[C@@H](CO)C(=O)NCC(=O)N[C@@H](C)C(=O)N1CCC[C@H]1C(=O)N1CCC[C@H]1C(=O)N1CCC[C@H]1C(=O)N[C@@H](CO)C(=O)N[C@@H](CCCCN)C(N)=O [Example 10] (H-Y[Aib]EGT[αMeF]TSDY[Aib]A[Aib]LDKQAQAEFVKWLLKGGPSSGAPPPSK-NH2) | 62.04 |
| CC(C)C[C@H](NC(=O)[C@H](CC(C)C)NC(=O)[C@H](Cc1c[nH]c2ccccc12)NC(=O)[C@H](CCCCN)NC(=O)[C@@H](NC(=O)[C@H](Cc1ccccc1)NC(=O)[C@H](CCC(=O)O)NC(=O)[C@H](C)NC(=O)[C@H](CCC(N)=O)NC(=O)[C@H](C)NC(=O)[C@H](CCC(N)=O)NC(=O)[C@H](CCCCN)NC(=O)[C@H](CC(=O)O)NC(=O)[C@H](CC(C)C)NC(=O)C(C)(C)NC(=O)[C@H](Cc1ccccc1)NC(=O)C(C)(C)NC(=O)[C@H](Cc1ccc(O)cc1)NC(=O)[C@H](CC(=O)O)NC(=O)[C@H](CO)NC(=O)[C@@H](NC(=O)[C@](C)(Cc1ccccc1)NC(=O)[C@@H](NC(=O)CNC(=O)[C@H](CCC(=O)O)NC(=O)C(C)(C)NC(=O)[C@@H](N)Cc1ccc(O)cc1)[C@@H](C)O)[C@@H](C)O)C(C)C)C(=O)N[C@@H](CCCCN)C(=O)NCC(=O)NCC(=O)N1CCC[C@H]1C(=O)N[C@@H](CO)C(=O)N[C@@H](CO)C(=O)NCC(=O)N[C@@H](C)C(=O)N1CCC[C@H]1C(=O)N1CCC[C@H]1C(=O)N1CCC[C@H]1C(=O)N[C@@H](CO)C(=O)N[C@@H](CCCCN)C(N)=O [Example 11] (H-Y[Aib]EGT[αMeF]TSDY[Aib]F[Aib]LDKQAQAEFVKWLLKGGPSSGAPPPSK-NH2) | 49.99 |
| CC(C)C[C@H](NC(=O)[C@H](CC(C)C)NC(=O)[C@H](Cc1c[nH]c2ccccc12)NC(=O)[C@H](CCCCN)NC(=O)[C@@H](NC(=O)[C@H](Cc1ccccc1)NC(=O)[C@H](CCC(=O)O)NC(=O)[C@H](C)NC(=O)[C@H](CCC(N)=O)NC(=O)[C@H](C)NC(=O)[C@H](CCC(N)=O)NC(=O)[C@H](CCCCN)NC(=O)[C@H](CC(=O)O)NC(=O)[C@H](CC(C)C)NC(=O)[C@H](CC1CCCCC1)NC(=O)[C@H](CCCCN)NC(=O)C(C)(C)NC(=O)[C@H](Cc1ccc(O)cc1)NC(=O)[C@H](CC(=O)O)NC(=O)[C@H](CO)NC(=O)[C@@H](NC(=O)[C@](C)(Cc1ccccc1)NC(=O)[C@@H](NC(=O)CNC(=O)[C@H](CCC(=O)O)NC(=O)C(C)(C)NC(=O)[C@@H](N)Cc1ccc(O)cc1)[C@@H](C)O)[C@@H](C)O)C(C)C)C(=O)N[C@@H](CCCCN)C(=O)NCC(=O)NCC(=O)N1CCC[C@H]1C(=O)N[C@@H](CO)C(=O)N[C@@H](CO)C(=O)NCC(=O)N[C@@H](C)C(=O)N1CCC[C@H]1C(=O)N1CCC[C@H]1C(=O)N1CCC[C@H]1C(=O)N[C@@H](CO)C(=O)N[C@@H](CCCCN)C(N)=O [Example 16] (H-Y[Aib]EGT[αMeF]TSDY[Aib]K[Cha]LDKQAQAEFVKWLLKGGPSSGAPPPSK-NH2) | 54.24 |
